Measured values: patent publication US11478471B2, “Methods and compositions for treating diabetes, metabolic syndrome and other conditions” (priority 2005, dated 2022)
≈ marks a conversion by molar mass, not a printed value.

Experiments:
plasma corticosterone = test: Plasma corticosterone in rats after oral dosing (ELISA); format: in vivo, Sprague Dawley rats; conditions: for Corticosteroid Levels (mean ± SEM): 4 h after gavage
Protocol: To generate the results shown in FIG. 1, five groups (eight per group) of rats were used. The rats were maintained on a 14/10 hour light/dark cycle and allowed free access to food and water. Each rat was dosed (200 mg drug/kg body weight) via a gastric tube. […] All of the rats were dosed between 2.00 and 3.00 pm and were sacrificed four hours later (between 6.00 and 7.00 pm). Plasma was prepared and the concentration of corticosterone determined by an enzyme linked immuno assay (ELISA). In rats, the predominant active glucocorticoid is corticosterone; in humans, the predominant active glucucorticoid is the closely related molecule cortisol.
The rats were maintained and dosed as described above. Plasma was prepared and the concentration of corticosterone in the plasma determined by ELISA.
(§1) The rats were maintained as described above; the drugs were suspended in olive oil, and each rat was dosed once via gastric tube to achieve a dose of 200 mg/kg. All of the rats were dosed at a specific time so that all terminations occurred between 6 and 7 pm. […] Following sacrifice, plasma was prepared, and the concentration of corticosterone in the plasma was determined by ELISA. In the same plasma samples, total cholesterol levels were also determined.
In the Table, corticosterone levels (mean±SEM; ng/mL) were determined four hours after oral gavage of the indicated drug (N=10/group). There was a single control group (dosed with vehicle).
Corticosterone levels (mean±SEM; ng/mL) were determined at the indicated times after oral gavage of the indicated drug at 200 mg/kg. […] The means of the vehicle treated groups are used as the time zero control point.

Candida kefyr = test: Antifungal MIC; format: cell-based; conditions: Kluyveromyces marxianus, DSM11954; DSM strain 11954, 48 h
Cryptococcus neoformans = test: Antifungal MIC; format: cell-based
[1] = 28 day GLP toxicity study in dogs; conditions: dogs, 40 mg/kg/day, led to cessation of dosing after 9 days
Candida glabrata = test: Antifungal MIC; format: cell-based; conditions: Nakaseomyces glabratus
Saccharomyces cerevisiae = test: Antifungal MIC; format: cell-based; conditions: DSM01333, DSM strain 01333, 48 h
Candida albicans = test: Antifungal MIC; format: cell-based
[2] = Toxicokinetics in the 28 day dog study of DIO-902 (with racemic ketoconazole group a); conditions: beagle, plasma, dogs; for concentration at 0 h / concentration at 1 h / concentration at 2 h / concentration at 4 h / concentration at 8 h / concentration at 12 h: Drug concentration in plasma; for AUC(0-t): AUC(0-12); for Tmax: Tmax Range;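 as to all read-outs here: beagle dogs dosed orally once daily within a 28-day GLP study, 3 animals per sex per group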
cholesterol levels = test: Cholesterol levels in rats after oral dosing; format: in vivo, Sprague Dawley rats; conditions: for Cholesterol Levels (mean ± SEM): single oral 200 mg/kg
Protocol: as §1

[3] = female, oral, 20 mg/kg, group a: 20 mg/kg oral (after 40 mg/kg days 1-9, pause), day 28, F
[4] = female, po, 20 mg/kg, group a: 20 mg/kg oral (after 40 mg/kg days 1-9, pause), day 28, F
[5] = female, po, 40 mg/kg, group a: 40 mg/kg oral, day 1, F
[6] = male, oral, 20 mg/kg, group a: 20 mg/kg oral (after 40 mg/kg days 1-9, pause), day 28, M
[7] = male, po, 20 mg/kg, group a: 20 mg/kg oral (after 40 mg/kg days 1-9, pause), day 28, M
[8] = male, po, 40 mg/kg, group a: 40 mg/kg oral, day 1, M

Compound: CC(=O)N1CCN(c2ccc(OCC3COC(Cn4ccnc4)(c4ccc(Cl)cc4Cl)O3)cc2)CC1 (racemic) [Racemic ketoconazole, 1-acetyl-4-[4-[[2-(2,4-dichlorophenyl)-2-[(1H-imidazol-1-yl)-methyl]-1,3-dioxolan-4-yl]methoxy]phenyl]piperazine]
- efficacy at lowering corticosterone, time course (FIG. 3) (plasma corticosterone; 200 mg/kg oral, up to 24 hours): intermediate between the two enantiomers
- Corticosteroid Levels (mean ± SEM) (plasma corticosterone; single oral 50 mg/kg): 215 ± 20.7 ng/mL
- Corticosteroid Levels (mean ± SEM) (plasma corticosterone; single oral 100 mg/kg): 210 ± 15.5 ng/mL
- Corticosteroid Levels (mean ± SEM), time course (plasma corticosterone; single oral 200 mg/kg, 4 h): 134 ± 10 ng/mL
- Corticosteroid Levels (mean ± SEM) (plasma corticosterone; single oral 200 mg/kg): 135 ± 13.7 ng/mL
- Corticosteroid Levels (mean ± SEM), time course (plasma corticosterone; single oral 200 mg/kg, 8 h): 163 ± 11 ng/mL
- Corticosteroid Levels (mean ± SEM), time course (plasma corticosterone; single oral 200 mg/kg, 12 h): 153 ± 14 ng/mL
- Corticosteroid Levels (mean ± SEM), time course (plasma corticosterone; single oral 200 mg/kg, 16 h): 132 ± 6 ng/mL
- Corticosteroid Levels (mean ± SEM), time course (plasma corticosterone; single oral 200 mg/kg, 20 h): 147 ± 17 ng/mL
- Corticosteroid Levels (mean ± SEM), time course (plasma corticosterone; single oral 200 mg/kg, 24 h): 151 ± 14 ng/mL
- Corticosteroid Levels (mean ± SEM) (plasma corticosterone; single oral 400 mg/kg): 113 ± 6.6 ng/mL
- Corticosteroid Levels (mean ± SEM) (plasma corticosterone; single oral 600 mg/kg): 115 ± 14.3 ng/mL
- MIC (Candida kefyr): 0.03 µg/mL (≈ 0.0565 µM)
- MIC (Cryptococcus neoformans; DSM11959, DSM strain 11959, 48 h): 0.06 µg/mL (≈ 0.113 µM)
- MIC (Cryptococcus neoformans; DSM11960, DSM strain 11960, 48 h): 0.125 µg/mL (≈ 0.235 µM)
- body weight losses [1]: up to 17.3%
- MIC (Candida glabrata; DSM11226, 48 h): 0.5 µg/mL (≈ 0.941 µM)
- MIC (Candida glabrata; DSM11950, 48 h): 0.25 µg/mL (≈ 0.47 µM)
- MIC (Saccharomyces cerevisiae): 0.25 µg/mL (≈ 0.47 µM)
- MIC (Candida albicans; 48 h): < 0.015 µg/mL
- MIC (Candida albicans; DSM11225, 48 h): < 0.015 µg/mL
- MIC (Candida albicans; DSM11943, 48 h): < 0.015 µg/mL
- MIC (Candida albicans; DSM11944, 48 h): < 0.015 µg/mL
- MIC (Candida albicans; DSM11945, 48 h): 0.03 µg/mL (≈ 0.0565 µM)
- MIC (Candida albicans; DSM11948, 48 h): < 0.015 µg/mL
- MIC (Candida albicans; DSM11949, 48 h): 0.125 µg/mL (≈ 0.235 µM)
- concentration at 0 h [2, 3]: < 250 ng/mL
- concentration at 1 h [2, 3]: < 250 ng/mL
- concentration at 2 h [2, 3]: 270 ng/mL
- concentration at 4 h [2, 3]: 350 ng/mL
- concentration at 8 h [2, 3]: 310 ng/mL
- concentration at 12 h [2, 3]: < 250 ng/mL
- AUC(0-t) ([2]; female, po, 20 mg/kg, group a: 20 mg/kg oral (after 40 mg/kg days 1-9, pause), day 28, F, n = 1): 4700 ng·h/mL
- Cmax [2, 4]: 550 ng/mL
- Tmax [2, 4]: 2 to 8 h
- AUC(0-t) [2, 5]: 185000 ng·h/mL
- Cmax [2, 5]: 21300 ng/mL
- concentration at 0 h [2, 5]: < 250 ng/mL
- concentration at 1 h [2, 5]: 4290 ng/mL
- concentration at 2 h [2, 5]: 12300 ng/mL
- concentration at 4 h [2, 5]: 20100 ng/mL
- concentration at 8 h [2, 5]: 18300 ng/mL
- concentration at 12 h [2, 5]: 14800 ng/mL
- Tmax [2, 5]: 4 to 8 h
- concentration at 0 h [2, 6]: < 250 ng/mL
- concentration at 1 h [2, 6]: < 250 ng/mL
- concentration at 2 h [2, 6]: 280 ng/mL
- concentration at 4 h [2, 6]: < 250 ng/mL
- concentration at 8 h [2, 6]: < 250 ng/mL
- concentration at 12 h [2, 6]: < 250 ng/mL
- AUC(0-t) ([2]; male, po, 20 mg/kg, group a: 20 mg/kg oral (after 40 mg/kg days 1-9, pause), day 28, M, n = 1): 3420 ng·h/mL
- Cmax [2, 7]: 510 ng/mL
- Tmax [2, 7]: 1 to 8 h
- AUC(0-t) [2, 8]: 143000 ng·h/mL
- Cmax [2, 8]: 16600 ng/mL
- concentration at 0 h [2, 8]: < 250 ng/mL
- concentration at 1 h [2, 8]: 5600 ng/mL
- concentration at 2 h [2, 8]: 8870 ng/mL
- concentration at 4 h [2, 8]: 10800 ng/mL
- concentration at 8 h [2, 8]: 16600 ng/mL
- concentration at 12 h [2, 8]: 12800 ng/mL
- Tmax [2, 8]: 8 h
- efficacy at lowering cholesterol (cholesterol levels; 200 mg/kg oral, up to 24 hours): intermediate between the two enantiomers
- Cholesterol Levels (mean ± SEM) (cholesterol levels; 4 h): 81.2 ± 3.9 mg/dL
- Cholesterol Levels (mean ± SEM) (cholesterol levels; 8 h): 73.5 ± 2.3 mg/dL
- Cholesterol Levels (mean ± SEM) (cholesterol levels; 12 h): 69.6 ± 2.3 mg/dL
- Cholesterol Levels (mean ± SEM) (cholesterol levels; 16 h): 69.6 ± 3.1 mg/dL
